According to patent US9068949B2, “System and method for multiplex spectroscopic imaging” (Purdue Research Foundation, priority 2013, dated 2015):

System: intact mouse ear
Test: DMSO penetration into intact mouse ear monitored by multiplex SRS imaging with MCR analysis
Format: in vivo
Conditions: DMSO applied to intact mouse ear
Procedure: In order to reduce ambiguity associated with MCR decomposition, a data augmentation matrix composed of repeating reference spectra, if needed, can be added to the spectral dataset D. The enhanced weight on pure reference spectra permits the MCR algorithm to selectively recover concentration profiles for corresponding Raman bands. An experiment was performed to test this. For tissue penetration data, pure DMSO spectrum and lipid spectrum were provided as initial estimations (reference spectra) for MCR analysis. A data augmentation matrix including reference spectra of DMSO and lipid was added to the spectral dataset in order to reduce ambiguity. For analysis of aqueous solutions of DMSO, a data augmentation matrix composed of reference spectra of DMSO was added to the spectral dataset in order to reduce MCR's ambiguity. A non-negativity constraint was used during the iterations.
FIGS. 10A, 10B, 11A, 11B, and 12 show experimental data of SRS imaging. Various aspects of parallel detection herein advantageously provide a speed of acquiring a spectrum at 30 μs time scale, or over 30,000 spectra per second. For imaging, this scheme avoids spectral profile distortion induced by sample movement, thus enabling observation of target molecules in a highly dynamic system. […] Every three minutes, one spectroscopic SRL image was acquired at the speed of 3 s per frame of 200×200 pixels. Importantly, although the C—H Raman spectra of DMSO and lipid are completely overlapped, spectroscopic SRS imaging, followed by employing MCR analysis as described above, permitted determining concentration maps of lipids and DMSO over time.
The scale bar in the 5-minute image in FIG. 10A is 20 μm. The arrow near the center of the 32-minute image in FIG. 10A indicates the location at which concentrations were measured for FIG. 12, discussed below.
The temporal dynamics of DMSO (circles) and lipid (squares) concentrations are shown. The curve represents fitting by a diffusion model. […]

structure of the fat cells after DMSO application (imaged up to 32 minutes): remained intact
DMSO penetration into the adipose tissue (lipid-abundant layer ~50 μm beneath the skin surface, in the first 5 min): Very small amounts
SMILES: C[S+](C)[O-] [DMSO, dimethyl sulfoxide]
distribution of DMSO in the adipose tissue (lipid-abundant layer ~50 μm beneath the skin surface, after 30 min): inter-cell distribution of DMSO was observed
